#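 Exposure lasted 48 hours, with cells grown in 96-well plates and compounds tested at five concentrations. Here, GI50 denotes the concentration required for 50% inhibition of growth. TGI denotes the concentration required for complete inhibition of growth.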
# Assays:
# Test in all cases: DTP human tumour cell line panel, 48 h
# 786-0 renal = system: 786-0 renal
# A549 NSCLC = system: A549 NSCLC
# ACHN renal = system: ACHN renal
# BT-549 breast = system: BT-549 breast
# CAKI-1 renal = system: CAKI-1 renal
# COLO 205 colon = system: COLO 205 colon
# EKVX NSCLC = system: EKVX NSCLC
# HCC-2998 colon = system: HCC-2998 colon
# HCT-116 colon = system: HCT-116 colon
# HCT-15 colon = system: HCT-15 colon
# HL-60(TB) leukemia = system: HL-60(TB) leukemia
# HOP-62 NSCLC = system: HOP-62 NSCLC
# HOP-92 NSCLC = system: HOP-92 NSCLC
# HS 578T breast = system: HS 578T breast
# HT29 colon = system: HT29 colon
# IGROV1 ovarian = system: IGROV1 ovarian
# K-562 leukemia = system: K-562 leukemia
# KM12 colon = system: KM12 colon
# LOX IMVI melanoma = system: LOX IMVI melanoma
# M14 melanoma = system: M14 melanoma
# MCF7 breast = system: MCF7 breast
# MDA-MB-231 breast = system: MDA-MB-231 breast
# MDA-MB-435 = system: MDA-MB-435
# MOLT-4 leukemia = system: MOLT-4 leukemia
# NCI-H226 lung = system: NCI-H226 lung
# NCI-H23 lung = system: NCI-H23 lung
# NCI-H460 lung = system: NCI-H460 lung
# NCI-H522 lung = system: NCI-H522 lung
# NCI/ADR-RES ovarian = system: NCI/ADR-RES ovarian
# OVCAR-3 ovarian = system: OVCAR-3 ovarian
# OVCAR-5 ovarian = system: OVCAR-5 ovarian
# OVCAR-8 ovarian = system: OVCAR-8 ovarian
# PC-3 prostate = system: PC-3 prostate
# RXF 393 renal = system: RXF 393 renal
# SF-268 CNS = system: SF-268 CNS
# SF-295 CNS = system: SF-295 CNS
# SK-MEL-2 melanoma = system: SK-MEL-2 melanoma
# SK-MEL-28 melanoma = system: SK-MEL-28 melanoma
# SK-MEL-5 melanoma = system: SK-MEL-5 melanoma
# SN12C renal = system: SN12C renal
# SNB-19 CNS = system: SNB-19 CNS
# SW-620 colon = system: SW-620 colon
# T-47D breast = system: T-47D breast
# TK-10 renal = system: TK-10 renal
# U251 CNS = system: U251 CNS
# UACC-257 melanoma = system: UACC-257 melanoma
# UACC-62 melanoma = system: UACC-62 melanoma
# UO-31 renal = system: UO-31 renal
structure (smiles),measurement,setting,value
CCCCOC(=O)C1OC(O[C@H]2CCC3(C)C(CCC4(C)C3CC=C3C5CC(C)(C)CCC5(C(=O)O)CC[C@]34C)C2(C)C)C(OC2OC(CO)C(O)C(O)C2O)C(OC2OC(CO)C(O)C(O)C2O)C1O (stereo partly specified),GI50,786-0 renal,26.2 µM
same,TGI,786-0 renal,70.9 µM
same,GI50,A549 NSCLC,34.1 µM
same,TGI,A549 NSCLC,> 100 µM
same,GI50,ACHN renal,20.6 µM
same,TGI,ACHN renal,48.5 µM
same,GI50,BT-549 breast,21.5 µM
same,TGI,BT-549 breast,41.6 µM
same,GI50,CAKI-1 renal,33.4 µM
same,TGI,CAKI-1 renal,95.4 µM
same,GI50,COLO 205 colon,20.1 µM
same,TGI,COLO 205 colon,52.3 µM
same,GI50,EKVX NSCLC,24.4 µM
same,TGI,EKVX NSCLC,49.7 µM
same,GI50,HCC-2998 colon,21.8 µM
same,TGI,HCC-2998 colon,38.1 µM
same,GI50,HCT-116 colon,20.6 µM
same,TGI,HCT-116 colon,42.7 µM
same,GI50,HCT-15 colon,20.9 µM
same,TGI,HCT-15 colon,51 µM
same,GI50,HL-60(TB) leukemia,22.3 µM
same,TGI,HL-60(TB) leukemia,52 µM
same,GI50,HOP-62 NSCLC,19.4 µM
same,TGI,HOP-62 NSCLC,35.6 µM
same,GI50,HOP-92 NSCLC,33.2 µM
same,TGI,HOP-92 NSCLC,> 100 µM
same,GI50,HS 578T breast,38 µM
same,TGI,HS 578T breast,> 100 µM
same,GI50,HT29 colon,34.2 µM
same,TGI,HT29 colon,> 100 µM
same,GI50,IGROV1 ovarian,> 100 µM
same,TGI,IGROV1 ovarian,> 100 µM
same,GI50,K-562 leukemia,23.2 µM
same,TGI,K-562 leukemia,> 100 µM
same,GI50,KM12 colon,30.8 µM
same,TGI,KM12 colon,93.5 µM
same,GI50,LOX IMVI melanoma,18 µM
same,TGI,LOX IMVI melanoma,31.8 µM
same,GI50,M14 melanoma,17.8 µM
same,TGI,M14 melanoma,32.7 µM
same,GI50,MCF7 breast,38.4 µM
same,TGI,MCF7 breast,> 100 µM
same,GI50,MDA-MB-231 breast,14.5 µM
same,TGI,MDA-MB-231 breast,32.2 µM
same,GI50,MDA-MB-435,30.6 µM
same,TGI,MDA-MB-435,81 µM
same,GI50,MOLT-4 leukemia,7.77 µM
same,TGI,MOLT-4 leukemia,36.4 µM
same,GI50,NCI-H226 lung,29.2 µM
same,TGI,NCI-H226 lung,66.1 µM
same,GI50,NCI-H23 lung,22.8 µM
same,TGI,NCI-H23 lung,47.6 µM
same,GI50,NCI-H460 lung,33.3 µM
same,TGI,NCI-H460 lung,> 100 µM
same,GI50,NCI-H522 lung,43.9 µM
same,TGI,NCI-H522 lung,> 100 µM
same,GI50,NCI/ADR-RES ovarian,74 µM
same,TGI,NCI/ADR-RES ovarian,> 100 µM
same,GI50,OVCAR-3 ovarian,> 100 µM
same,TGI,OVCAR-3 ovarian,> 100 µM
same,GI50,OVCAR-5 ovarian,28.8 µM
same,TGI,OVCAR-5 ovarian,56.4 µM
same,GI50,OVCAR-8 ovarian,66.8 µM
same,TGI,OVCAR-8 ovarian,> 100 µM
same,GI50,PC-3 prostate,34.7 µM
same,TGI,PC-3 prostate,> 100 µM
same,GI50,RXF 393 renal,58.5 µM
same,TGI,RXF 393 renal,> 100 µM
same,GI50,SF-268 CNS,27.7 µM
same,TGI,SF-268 CNS,84.4 µM
same,GI50,SF-295 CNS,26 µM
same,TGI,SF-295 CNS,71 µM
same,GI50,SK-MEL-2 melanoma,40.9 µM
same,TGI,SK-MEL-2 melanoma,> 100 µM
same,GI50,SK-MEL-28 melanoma,26.7 µM
same,TGI,SK-MEL-28 melanoma,52.2 µM
same,GI50,SK-MEL-5 melanoma,33.1 µM
same,TGI,SK-MEL-5 melanoma,> 100 µM
same,GI50,SN12C renal,21.8 µM
same,TGI,SN12C renal,40 µM
same,GI50,SNB-19 CNS,22.5 µM
same,TGI,SNB-19 CNS,53.6 µM
same,GI50,SW-620 colon,36.6 µM
same,TGI,SW-620 colon,> 100 µM
same,GI50,T-47D breast,48 µM
same,TGI,T-47D breast,> 100 µM
same,GI50,TK-10 renal,33.3 µM
same,TGI,TK-10 renal,> 100 µM
same,GI50,U251 CNS,17.9 µM
same,TGI,U251 CNS,31.8 µM
same,GI50,UACC-257 melanoma,26.2 µM
same,TGI,UACC-257 melanoma,62.2 µM
same,GI50,UACC-62 melanoma,20.9 µM
same,TGI,UACC-62 melanoma,36.1 µM
same,GI50,UO-31 renal,49.2 µM
same,TGI,UO-31 renal,> 100 µM

# Reference: PubChem BioAssay (NCI)
